Assay [1] deals with T1, Nicotinamide N-methyltransferase (Homo sapiens, UniProt P40261).
T1 sequence (P40261 whole entry): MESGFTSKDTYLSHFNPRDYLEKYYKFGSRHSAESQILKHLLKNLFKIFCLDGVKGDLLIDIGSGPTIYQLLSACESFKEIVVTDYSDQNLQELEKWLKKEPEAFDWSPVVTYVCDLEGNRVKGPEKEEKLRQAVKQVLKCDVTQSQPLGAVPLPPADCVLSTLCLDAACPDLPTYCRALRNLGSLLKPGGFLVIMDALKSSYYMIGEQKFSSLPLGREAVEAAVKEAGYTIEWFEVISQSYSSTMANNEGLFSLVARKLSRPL
Briefly: Inhibition of endogenous human NNMT overexpressed in human U2OS cells assessed incubated for 24 hrs by LC-MS/MS analysis.

In assay [2] the target is T2, Nicotinamide N-methyltransferase (Mus musculus, UniProt O55239).
T2 sequence (O55239 whole entry): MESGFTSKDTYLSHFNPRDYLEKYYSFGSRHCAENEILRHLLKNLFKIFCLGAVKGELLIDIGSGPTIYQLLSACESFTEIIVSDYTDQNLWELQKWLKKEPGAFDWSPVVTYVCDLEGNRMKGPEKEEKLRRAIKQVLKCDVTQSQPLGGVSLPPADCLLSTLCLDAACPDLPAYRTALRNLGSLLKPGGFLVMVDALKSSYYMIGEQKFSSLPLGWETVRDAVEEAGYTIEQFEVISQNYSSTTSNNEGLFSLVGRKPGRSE
Briefly: Inhibition of endogenous mouse NNMT overexpressed in murine 3T3-L1 cells assessed incubated for 24 hrs by LC-MS/MS analysis.

Assay [3] concerns the target T1, Nicotinamide N-methyltransferase. As to the kind of experiment: Inhibition of NNMT (unknown origin) assessed as formation of MNA using nicotinamide as substrate and SAM as cofactor by fluorescence based assay.
The target is the same in assay [4]. Briefly: Binding affinity to recombinant human NNMT SAM binding site expressed in Escherichia coli BL21 (DE3) using nicotinamide as substrate and AdoMet as cofactor preincubated for 10 mins followed by substrate addition and measured after 10 mins by UHP-HILIC-MS analysis.

As for `COc1ccc(C(N)=O)cn1`, the half-inhibitory concentration (IC50) in assay [1] was found to be 1.6 µM; in assay [2], 6.3 µM. As to `C=C(C)[C@@]12O[C@@]3(/C=C/C=C/CCCCC)O[C@@H]1[C@@H]1[C@@H]4O[C@]4(CO)[C@@H](O)[C@]4(O)C(=O)C(C)=C[C@H]4[C@@]1(O3)[C@H](C)[C@H]2OC(C)=O` [YUANHUADINE], the 50% inhibitory concentration (IC50) in assay [3] amounted to 4 µM. As for `Nc1ncnc2c1ncn2[C@@H]1O[C@H](C[C@@H](N)CC[C@H](N)C(=O)O)[C@@H](O)[C@H]1O` [SINEFUNGIN], in assay [4], the IC50 is 3.9 µM. As for `Nc1ncnc2c1ncn2[C@@H]1O[C@H](CSCC[C@H](N)C(=O)O)[C@@H](O)[C@H]1O` [AdoHcy], the IC50 in assay [4] was found to be 26.3 µM.

(Values after BindingDB's records for doi:10.1021/jm00047a011 (Purdue University, 2021).)
